From ChEMBL document CHEMBL3885881, “DrugMatrix”

Species on record: Rattus norvegicus
Experiment: DrugMatrix - Regimen: Daily Repeat
Format: toxicity, organism-based, Sprague-Dawley
Parameters: regimen Daily Repeat, gender Male, age 6-8 weeks
Conditions: in vivo, po, 0 mg/kg, route oral GAVAGE, dose level Control, vehicle 100 % WATER; for ABSOLUTE BASOPHIL / ABSOLUTE EOSINOPHIL / ABSOLUTE LYMPHOCYTE / ABSOLUTE MONOCYTE / ABSOLUTE SEGMENTED NEUTROPHIL / BASOPHIL / EOSINOPHIL / ERYTHROCYTE COUNT / HEMATOCRIT / HEMOGLOBIN / LEUKOCYTE COUNT / LYMPHOCYTE / MEAN CORPUSCULAR HEMOGLOBIN / MEAN CORPUSCULAR HEMOGLOBIN CONCENTRATION / MEAN CORPUSCULAR VOLUME / MONOCYTE / NEUTROPHIL / NUCLEATED RED BLOOD CELLS / PLATELET COUNT: tissue Blood; for ALANINE AMINOTRANSFERASE / ALBUMIN / ALKALINE PHOSPHATASE / ASPARTATE AMINOTRANSFERASE / BLOOD UREA NITROGEN / CARBON DIOXIDE / CHLORIDE / CHOLESTEROL / CREATINE PHOSPHOKINASE / CREATININE / GLUCOSE / LACTATE DEHYDROGENASE / LIPASE / PHOSPHORUS / POTASSIUM / SODIUM / TOTAL BILIRUBIN / TOTAL PROTEIN / URIC ACID: tissue Plasma

Compound: C[N+](C)(C)CCO.[Cl-] [CHOLINE CHLORIDE]
- ABSOLUTE BASOPHIL (72 h, time 3 day): 0 CELLS/uL
- ABSOLUTE EOSINOPHIL (72 h, time 3 day): 0 CELLS/uL
- ABSOLUTE LYMPHOCYTE (72 h, time 3 day): 10386.33 CELLS/uL
- ABSOLUTE MONOCYTE (72 h, time 3 day): 88.5 CELLS/uL
- ABSOLUTE SEGMENTED NEUTROPHIL (72 h, time 3 day): 1008.5 CELLS/uL
- BASOPHIL (72 h, time 3 day): 0%
- EOSINOPHIL (72 h, time 3 day): 0%
- ERYTHROCYTE COUNT (72 h, time 3 day): 5.16 x10E6/uL
- HEMATOCRIT (72 h, time 3 day): 32.43%
- HEMOGLOBIN (72 h, time 3 day): 12.98 G/DL
- LEUKOCYTE COUNT (72 h, time 3 day): 11.48 x10E3/uL
- LYMPHOCYTE (72 h, time 3 day): 92.33%
- MEAN CORPUSCULAR HEMOGLOBIN (72 h, time 3 day): 25.23 pg
- MEAN CORPUSCULAR HEMOGLOBIN CONCENTRATION (72 h, time 3 day): 40.08 G/DL
- MEAN CORPUSCULAR VOLUME (72 h, time 3 day): 62.95 fL
- MONOCYTE (72 h, time 3 day): 0.67%
- NEUTROPHIL (72 h, time 3 day): 7%
- NUCLEATED RED BLOOD CELLS (72 h, time 3 day): 0 /100WBC
- PLATELET COUNT (72 h, time 3 day): 1016.67 x10E3/uL
- ALANINE AMINOTRANSFERASE (72 h, time 3 day): 62.17 u/L
- ALBUMIN (72 h, time 3 day): 3.95 G/DL
- ALKALINE PHOSPHATASE (72 h, time 3 day): 363.5 u/L
- ASPARTATE AMINOTRANSFERASE (72 h, time 3 day): 118 u/L
- BLOOD UREA NITROGEN (72 h, time 3 day): 14.5 mg/dL
- CARBON DIOXIDE (72 h, time 3 day): 22.83 mmol/L
- CHLORIDE (72 h, time 3 day): 100.67 MEQ/L
- CHOLESTEROL (72 h, time 3 day): 66 mg/dL
- CREATINE PHOSPHOKINASE (72 h, time 3 day): 1308.83 u/L
- CREATININE (72 h, time 3 day): 0.22 mg/dL
- GLUCOSE (72 h, time 3 day): 187.5 mg/dL
- LACTATE DEHYDROGENASE (72 h, time 3 day): 380.17 u/L
- LIPASE (72 h, time 3 day): 16.17 u/L
- PHOSPHORUS (72 h, time 3 day): 14.27 mg/dL
- POTASSIUM (72 h, time 3 day): 6.8 MEQ/L
- SODIUM (72 h, time 3 day): 142.53 MEQ/L
- TOTAL BILIRUBIN (72 h, time 3 day): 0.2 mg/dL
- TOTAL PROTEIN (72 h, time 3 day): 5.68 G/DL
- URIC ACID (72 h, time 3 day): 2.87 mg/dL
- ABSOLUTE BASOPHIL (120 h, time 5 day): 0 CELLS/uL
- ABSOLUTE EOSINOPHIL (120 h, time 5 day): 80 CELLS/uL
- ABSOLUTE LYMPHOCYTE (120 h, time 5 day): 13301.33 CELLS/uL
- ABSOLUTE MONOCYTE (120 h, time 5 day): 180.83 CELLS/uL
- ABSOLUTE SEGMENTED NEUTROPHIL (120 h, time 5 day): 1187.83 CELLS/uL
- BASOPHIL (120 h, time 5 day): 0%
- EOSINOPHIL (120 h, time 5 day): 0.5%
- ERYTHROCYTE COUNT (120 h, time 5 day): 5.54 x10E6/uL
- HEMATOCRIT (120 h, time 5 day): 35.65%
- HEMOGLOBIN (120 h, time 5 day): 14.22 G/DL
- LEUKOCYTE COUNT (120 h, time 5 day): 14.75 x10E3/uL
- LYMPHOCYTE (120 h, time 5 day): 90.67%
- MEAN CORPUSCULAR HEMOGLOBIN (120 h, time 5 day): 25.65 pg
- MEAN CORPUSCULAR HEMOGLOBIN CONCENTRATION (120 h, time 5 day): 39.88 G/DL
- MEAN CORPUSCULAR VOLUME (120 h, time 5 day): 64.35 fL
- MONOCYTE (120 h, time 5 day): 1%
- NEUTROPHIL (120 h, time 5 day): 7.83%
- NUCLEATED RED BLOOD CELLS (120 h, time 5 day): 0.17 /100WBC
- PLATELET COUNT (120 h, time 5 day): 1285.33 x10E3/uL
- ALANINE AMINOTRANSFERASE (120 h, time 5 day): 51.67 u/L
- ALBUMIN (120 h, time 5 day): 4.08 G/DL
- ALKALINE PHOSPHATASE (120 h, time 5 day): 391.5 u/L
- ASPARTATE AMINOTRANSFERASE (120 h, time 5 day): 99.5 u/L
- BLOOD UREA NITROGEN (120 h, time 5 day): 15.5 mg/dL
- CARBON DIOXIDE (120 h, time 5 day): 28.33 mmol/L
- CHLORIDE (120 h, time 5 day): 101.83 MEQ/L
- CHOLESTEROL (120 h, time 5 day): 67.83 mg/dL
- CREATINE PHOSPHOKINASE (120 h, time 5 day): 771.33 u/L
- CREATININE (120 h, time 5 day): 0.23 mg/dL
- GLUCOSE (120 h, time 5 day): 156.5 mg/dL
- LACTATE DEHYDROGENASE (120 h, time 5 day): 544.33 u/L
- LIPASE (120 h, time 5 day): 10.17 u/L
- PHOSPHORUS (120 h, time 5 day): 12.03 mg/dL
- POTASSIUM (120 h, time 5 day): 6.81 MEQ/L
- SODIUM (120 h, time 5 day): 144.13 MEQ/L
- TOTAL BILIRUBIN (120 h, time 5 day): 0.22 mg/dL
- TOTAL PROTEIN (120 h, time 5 day): 6 G/DL
- URIC ACID (120 h, time 5 day): 2.18 mg/dL
